{"source": "patent US11628179B2", "about": "“Compounds for treating and preventing extracellular histone mediated pathologies” (priority 2017, dated 2023)", "key": {"[1]": {"test": "Non-specific binding to ultrafiltration device (phosphate buffer)", "type": "in vitro ADME", "settings": "for Concentration of mCBS, 200 ng/mL Post-filter / Concentration of mCBS, 200 ng/mL Pre-filter / Concentration of mCBS, 2000 ng/mL Post-filter / Concentration of mCBS, 2000 ng/mL Pre-filter: Phosphate Buffer pH 7.4, replicates and Mean", "protocol": "Protein binding was assessed by an ultrafiltration method using Centrifree® Ultrafiltration Devices with a 30000 dalton molecular weight cut-off point. Briefly, known concentrations of mCBS (as free base) were added to human, rat and dog plasma samples and incubated for 20 min at 37° C. The samples were then subject to ultrafiltration to separate protein bound and unbound drug.\nmCBS stock solutions (10 μL) were spiked into solutions of each test matrix (490 μL) as listed below in Table 9 to have a final concentration of 200 ng/mL & 2000 ng/m L.\nSpiked samples were then incubated at 37° C. for 20 minutes in a water bath. Aliquots of the samples from each test group (500 μL) were transferred to the ultrafiltration devices (n=3) and centrifuged for 20 minutes at 1000 g. After centrifugation, aliquots of the ultrafiltrates (50 μL) were transferred to separate test tubes for extraction, alongside duplicate aliquots of the samples prior to ultrafiltration from each test group.\nFor quantification of samples before ultrafiltration, samples were analysed against a freshly prepared standard curve in plasma."}, "Beagle dogs": {"test_system": "Beagle dogs", "test": "Phase 2, continuous intravenous infusion at the MTD for 6 additional days", "type": "in vivo, dog", "protocol": "Following confirmation of the MTD (2788 mg/kg/day), the dogs were then transferred to Phase 2 of the study, and the dosing administration was resumed at the MTD for 6 additional days of continuous infusion as indicated in Table 16 below.\nFollowing completion of the additional 6 days of continuous infusion and collection of the last toxicokinetic blood samples, all animals were euthanized and subjected to a necropsy examination on Day 8. Histological examination was performed on the liver and kidneys of all animals."}}, "note": "Where “and” joins values, the source holds several entries; their conditions need not be identical. Equal entries are not always repeated. Structures can show the parent of a compound that is named as a salt.", "data": [{"smiles": "CO[C@@H]1O[C@H](COS(=O)(=O)O)[C@@H](O[C@@H]2O[C@H](COS(=O)(=O)O)[C@@H](OS(=O)(=O)O)[C@H](OS(=O)(=O)O)[C@H]2OS(=O)(=O)O)[C@H](OS(=O)(=O)O)[C@H]1OS(=O)(=O)O", "note": "[mCBS, β-O-methyl cellobioside sulfate]", "values": [{"measurement": "Non-specific binding (NSB %)", "setting": "[1]; 200 ng/mL", "result": 0.50, "unit": "%"}, {"measurement": "Non-specific binding (NSB %)", "setting": "[1]; 2000 ng/mL", "result": "−1.97", "unit": "%"}, {"measurement": "Concentration of mCBS, 200 ng/mL Post-filter", "setting": "[1]", "result": "194 ng/mL and 202 ng/mL"}, {"measurement": "Concentration of mCBS, 200 ng/mL Pre-filter", "setting": "[1]", "result": "209 ng/mL and 195 ng/mL"}, {"measurement": "Concentration of mCBS, 2000 ng/mL Post-filter", "setting": "[1]", "result": "2190 ng/mL and 2160 ng/mL"}, {"measurement": "Concentration of mCBS, 2000 ng/mL Pre-filter", "setting": "[1]", "result": 1970, "unit": "ng/mL"}, {"measurement": "Concentration of mCBS, 200 ng/mL Post-filter", "setting": "[1]; mean", "result": 201, "unit": "ng/mL"}, {"measurement": "Concentration of mCBS, 200 ng/mL Pre-filter", "setting": "[1]; mean", "result": 202, "unit": "ng/mL"}, {"measurement": "Concentration of mCBS, 2000 ng/mL Post-filter", "setting": "[1]; mean", "result": 2070, "unit": "ng/mL"}, {"measurement": "Concentration of mCBS, 2000 ng/mL Pre-filter", "setting": "[1]; mean", "result": 2030, "unit": "ng/mL"}, {"measurement": "tolerability", "setting": "Beagle dogs; 2788 mg/kg/day continuous IV infusion", "result": "well tolerated"}, {"measurement": "t1/2 after end of infusion", "setting": "Beagle dogs; 2788 mg/kg/day, both animals", "result": "approximately 1 hour"}]}]}
